Square brackets hold non-standard residues; d marks the D form. Peptide text beside a SMILES is read from it. ΔPro = O=C(O)[C@@H]1C=CCN1
What was measured:
[1] = cited from earlier work; for analgesic activity (in words): prior-art report
Guinea Pig Ileum = assay: Opiate activity in guinea pig ileum assay; assay type: cell-based
Experimental: The opiate activity of [2-D-threonine, 5-(3,4-dehydroproline)]-enkephalinamide was measured according to the method of H. W. Kosterelitz, R. J. Lydon and H. A. Watt, British Journal of Pharmacology, volume 39 (1970), pp. 398-413. The results of the assay are shown in Table II and are compared with the opiate activities for human β-endorphin and Met-enkephaline.

5-HTP Diarrhea = assay: Anti-diarrhea activity against 5-HTP diarrhea in CD-1 mice (comparative tests); assay type: in vivo, Male CD-1 mice; details: for anti-diarrhea activity (in words): intravenously at a dose of 132 μ moles/kg
Experimental: (§1) The anti-diarrhea ED50 values were determined using a computer program "ED50" based on the probit method of D. J. Finney, "Probit Analysis", Cambridge University Press, Cambridge, Great Britain (1971). The average percent inhibition obtained at each dose level of [D-Thr^2, Δ^3 Pro^5 ]-enkephalinamide was used as the response.
Male CD-1 mice were obtained from Charles River, Inc., Wilmington, Massachusetts, and weighted between 18 and 25 grams at the time of use.
All compounds with the exception of 5-HTP were dissolved in sterile 0.9% sodium chloride solution. Distilled water was used as the vehicle for 5-HTP. All compounds were administered to the mice using a constant dosage volume of 0.2 ml/20 gms of body weight.
In the experiment involving naloxone HCl, it or the vehicle were given 5 minutes prior to the administration of β-endorphin.
The amount of diarrhea produced by 5-HTP was determined as follows. Immediately following the administration of 5-HTP, the mice were individually housed in open-bottomed wire cages of a width and length of 8.5 cm and a height of 7.5 cm, resting on preweighed plastic sheets. The mice were removed from the cages 30 minutes after receiving 5-HTP, and any visible urinary discharge present on the plastic sheet was blotted dry. The sheets were then reweighed. The weight increment was considered to represent fecal weight.

[2] = system: 5-hydroxytryptophan-induced diarrhea; assay: Anti-diarrhea activity against 5-hydroxytryptophan-induced diarrhea in CF-1 mice; assay type: in vivo, Male CF-1 mice; details: for Mean Fecal Wt. (mg) + S.E.: 30 s before 10 mg/kg 5-HTP ip, 30-minute test period
Experimental: Male CF-1 mice were used. The mice were housed at least one week prior to use. At the time of use, the mice were 49 days of age and weighed between 21-25 grams. The mice received, intravenously, vehicle, or the indicated amounts of, [D-Thr^2, Δ^3 Pro^5 ]enkephalinamide dissolved in sterile 0.9% sodium chloride. Thirty seconds later, 10 mg/kg of DL-5-hydroxytryptophan was administered intraperitoneally using distilled water as the vehicle. The mice were then immediately placed in individual open-bottomed wire cages resting on preweighed parafilm sheets. The mice were removed from their cages 30 minutes after receiving the DL-5-hydroxytryptophan. Any fecal material adhering to the sides of the wire cage was collected and placed on the parafilm sheets, and any visible urine on the sheets was blotted dry. The sheets were weighed, and the weight increment was considered to represent the amount of feces discharged during the 30-minute test period.
as §1

[3] = iv, 30 seconds prior to 10 mg/kg 5-HTP ip

## [D-Met^2, Thz^5 ]-enkephalinamide
[1]
  analgesic activity (in words): potent analgesic agents

## Human β-Endorphin
Guinea Pig Ileum
  IC50: 31 nM
Guinea Pig Ileum; human β-endorphin = 100
  Relative Potency: 100
5-HTP Diarrhea; 0.43 μmoles/kg iv
  % Inhibition of 5-HTP Diarrhea ± S.E.: 25.6 ± 16.1%
5-HTP Diarrhea; 0.86 μmoles/kg iv
  % Inhibition of 5-HTP Diarrhea ± S.E.: 46.6 ± 16.0%
5-HTP Diarrhea; 1.0 μmoles/kg sc
  % Inhibition of 5-HTP Diarrhea ± S.E.: 35.3 ± 14.2%
5-HTP Diarrhea; 1.73 μmoles/kg iv
  % Inhibition of 5-HTP Diarrhea ± S.E.: 58.3 ± 12.6%
5-HTP Diarrhea; 3.0 μmoles/kg sc
  % Inhibition of 5-HTP Diarrhea ± S.E.: 51.7 ± 9.9%
5-HTP Diarrhea; 3.46 μmoles/kg iv
  % Inhibition of 5-HTP Diarrhea ± S.E.: 62.2 ± 10.3%
5-HTP Diarrhea; 6.0 μmoles/kg sc
  % Inhibition of 5-HTP Diarrhea ± S.E.: 61.0 ± 6.9%
5-HTP Diarrhea; 6.92 μmoles/kg iv
  % Inhibition of 5-HTP Diarrhea ± S.E.: 66.4 ± 8.0%
5-HTP Diarrhea; 9.0 μmoles/kg sc
  % Inhibition of 5-HTP Diarrhea ± S.E.: 70.3 ± 8.7%
5-HTP Diarrhea; 13.84 μmoles/kg iv
  % Inhibition of 5-HTP Diarrhea ± S.E.: 92.2 ± 4.8%
5-HTP Diarrhea; [3]
  Anti-Diarrhea ED50 ± S.E.: 1.42 ± 0.636 µmol/kg
5-HTP Diarrhea; sc, 1 minute prior to 10 mg/kg 5-HTP ip
  Anti-Diarrhea ED50 ± S.E.: 2.65 ± 1.425 µmol/kg

## [D-Thr^2, Thz^5 ]-enkephalinamide
[1]
  analgesic activity (in words): potent analgesic agents

## [D-Ala^2, MePhe^4, MetO^5 -ol] enkephalin
[1]; Roemer et al., Nature 268, 547 (1977)
  oral activity (in words): orally active
[1]
  analgesic activity (in words): most potent analgesic of the group

## Leu-Enkephalin
5-HTP Diarrhea; 66 μmoles/kg iv
  % Inhibition of 5-HTP Diarrhea ± S.E.: 0.0 ± 13.1%
5-HTP Diarrhea; 132 μmoles/kg iv
  % Inhibition of 5-HTP Diarrhea ± S.E.: 10.4 ± 7.7%
5-HTP Diarrhea
  anti-diarrhea activity (in words): only weak anti-diarrhea activity
5-HTP Diarrhea; [3]
  Anti-Diarrhea ED50 ± S.E.: > 132 µmol/kg

## C[C@H](O)[C@@H](NC(=O)[C@@H](N)Cc1ccc(O)cc1)C(=O)NCC(=O)N[C@@H](Cc1ccccc1)C(=O)N1CC=C[C@H]1C(N)=O [[D-Thr^2, Δ^3 Pro^5]-enkephalinamide, [2-D-threonine, 5-(3,4-dehydroproline)]-enkephalinamide] (H-Y[dT]GF[ΔPro]-NH2)
Guinea Pig Ileum
  IC50: 9.3 nM
Guinea Pig Ileum; human β-endorphin = 100, 5-(3,4-dehydroproline)]-enkephalinamide
  Relative Potency: 330
Guinea Pig Ileum; human β-endorphin = 100, listed as Tyr-D-Thr-Gly-Phe-Δ Pro-NH2
  Relative Potency: 336
[2]; 1.2 μm/kg iv
  Mean Fecal Wt. (mg) + S.E.: 117.3 ± 11.06 mg
[2]; 1.2 μm/kg iv, 5-HTP 10 mg/kg ip
  % Inhibition: 34.6%
[2]; 3.60 μm/kg iv
  Mean Fecal Wt. (mg) + S.E.: 80.1 ± 22.43 mg
[2]; 3.60 μm/kg iv, 5-HTP 10 mg/kg ip
  % Inhibition: 55.3%
[2]; 12.05 μm/kg iv
  Mean Fecal Wt. (mg) + S.E.: 49.8 ± 14.44 mg
[2]; 12.05 μm/kg iv, 5-HTP 10 mg/kg ip
  % Inhibition: 72.2%
[2]; 24.10 μm/kg iv
  Mean Fecal Wt. (mg) + S.E.: 37.9 ± 12.81 mg
[2]; 24.10 μm/kg iv, 5-HTP 10 mg/kg ip
  % Inhibition: 78.9%
[2]; by intravenous injection
  inhibition of 5-hydroxytryptophan-induced diarrhea (in words): potent agent
[2]; iv, probit method, 5-HTP 10 mg/kg ip
  ED50 μm/kg + S.E.: 2.9 ± 1.74 μm/kg

## [D-Met^2, Pro^5 ]-enkephalinamide [D-Met^2 -Pro^5 -Enkephalin-Amide]
[1]
  analgesic activity (in words): potent analgesic agent
5-HTP Diarrhea; 0.20 μmoles/kg iv
  % Inhibition of 5-HTP Diarrhea ± S.E.: 1.7 ± 13.2%
5-HTP Diarrhea; 0.60 μmoles/kg iv
  % Inhibition of 5-HTP Diarrhea ± S.E.: 32.3 ± 13.4%
5-HTP Diarrhea; 1.20 μmoles/kg iv
  % Inhibition of 5-HTP Diarrhea ± S.E.: 36.9 ± 11.0%
5-HTP Diarrhea; 2.40 μmoles/kg iv
  % Inhibition of 5-HTP Diarrhea ± S.E.: 66.0 ± 7.6%
5-HTP Diarrhea; 4.30 μmoles/kg iv
  % Inhibition of 5-HTP Diarrhea ± S.E.: 88.6 ± 7.7%
5-HTP Diarrhea; [3]
  Anti-Diarrhea ED50 ± S.E.: 1.38 ± 0.310 µmol/kg

## CN1CC[C@]23c4c5ccc(O)c4O[C@H]2[C@@H](O)C=C[C@H]3[C@H]1C5.O=S(=O)(O)O [Morphine Sulfate]
5-HTP Diarrhea; intravenously or subcutaneously administered
  prevention of 5-HTP diarrhea (in words): effective in preventing this diarrhea

## Met-Enkephalin
Guinea Pig Ileum
  IC50: 124 nM
Guinea Pig Ileum; human β-endorphin = 100
  Relative Potency: 25
5-HTP Diarrhea; 66 μmoles/kg iv
  % Inhibition of 5-HTP Diarrhea ± S.E.: 21.3 ± 15.9%
5-HTP Diarrhea; 132 μmoles/kg iv
  % Inhibition of 5-HTP Diarrhea ± S.E.: 23.7 ± 9.6%
5-HTP Diarrhea
  anti-diarrhea activity (in words): only weak anti-diarrhea activity
5-HTP Diarrhea; [3]
  Anti-Diarrhea ED50 ± S.E.: > 132 µmol/kg

Reference: US4238390A, “Synthesis and biological activity of [D-Thr^2, Δ^3 Pro^5 ]-enkephalinamide” (Hoffmann-La Roche Inc., priority 1979, dated 1980)
